Measurements published in paper PMC8876800, “Neuropsychopharmacology of Emerging Drugs of Abuse: meta- and para-Halogen-Ring-Substituted α-PVP (“flakka”) Derivatives” (International Journal of Molecular Sciences, 2022).

Experiments:
Swiss CD-1 mice [1] = test: Open field test: center vs. periphery (anxiety-like behavior); type: in vivo; conditions: for acute anxiogenic effect (time in center of open field): 2.5, 10 and 25 mg kg−1 i.p., acute administration
Method: (§1) Male Swiss CD-1 mice (Janvier, Le Genest, France) weighing 30–35 g (6–8 weeks old) were randomly assigned to an experimental group. The animals were housed (seven per cage) in polycarbonate cages with wood-derived bedding, in temperature-controlled conditions (22 ± 1 °C) under a 12 h light/dark cycle and had ad libitum access to food (standard laboratory diet, Panlab SL, Barcelona, Spain) and drinking water. All animal care and experimental protocols in this study were approved by the Animal Ethics Committee of the University of Barcelona under the supervision of the Autonomous Government of Catalonia and are in accordance with the guidelines of the European Community Council (2010/63/EU), as amended by Regulation (EU) 2019/1010. Efforts were made to minimize animal use and suffering. All studies involving animals comply with the ARRIVE guidelines. The animals were supervised before and throughout the study, immediately after injection, and during the behavioral experiment as well as 24 h after injection, and different parameters were visually evaluated for humane endpoints, such as abnormal posture, greater loss than 20%, self-mutilations, and strange vocalizations.
Open-field experiments are straight-forward tests that evaluate the animals’ activity in response to novelty (or anxiogenic environment) and pharmacological treatments. Each animal was placed into the center of an open field arena, with sufficient height to prevent the animals from escaping (25 cm length × 25 cm width × 40 cm height), and the time spent (in seconds) in the center (8 × 8 cm) or the periphery of the arena was monitored for 60 min (Smart 3.0 Panlab, Barcelona, Spain).
(§2) Data were expressed as mean ± SEM. […] High ratios indicate greater selectivity for DAT.

Swiss CD-1 mice [2] = test: Conditioned place preference (CPP); type: in vivo; conditions: for CPP rewarding effects vs saline: highest dose 25 mg kg−1 i.p.
Method: as §1
A place conditioning paradigm was used to determine the potential of the seven α-PVP derivatives to induce rewarding effects. The apparatus that is used for this test consists of two compartments, with differences in tactile and visual cues, communicated by a central corridor. Conditioned place preference (CPP) was performed as described by. Briefly, CPP was performed in three phases: preconditioning test and conditioning and post-conditioning test. During the preconditioning phase, mice had free access to both compartments during 15 min, and the time spent in each compartment was recorded and monitored (Smart 3.0 Panlab, Barcelona, Spain). During the conditioning phase (8 sessions), access to the corridor was closed, and mice received an i.p. injection of the corresponding α-PVP derivative and were immediately placed into one of the compartments for 20 min. The doses tested are in accordance with the ones used in the HLA experiment. On the alternative session, mice were placed for 20 min in the other compartment after receiving a saline i.p. injection. Mice in the control group received a saline injection in every session. The compartment and session in which mice received the drug was randomized. On the test day (post-conditioning phase), the same conditions as in the pre-conditioning phase applied. A preference score, expressed in seconds, was calculated as the difference between the time spent in the drug-paired compartment in the post-conditioning test minus the time spent in the preconditioning phase.
as §2

hDAT [3] = target: T1, hDAT (Homo sapiens, UniProt Q01959); test: Transporter binding assay, [3H]WIN35,428 displacement in HEK293 membranes; design: expressed in transfected cells; conditions: for hDAT/hSERT Affinity Ratio: ratio of binding affinities at hDAT and hSERT
T1 sequence (Q01959 whole entry): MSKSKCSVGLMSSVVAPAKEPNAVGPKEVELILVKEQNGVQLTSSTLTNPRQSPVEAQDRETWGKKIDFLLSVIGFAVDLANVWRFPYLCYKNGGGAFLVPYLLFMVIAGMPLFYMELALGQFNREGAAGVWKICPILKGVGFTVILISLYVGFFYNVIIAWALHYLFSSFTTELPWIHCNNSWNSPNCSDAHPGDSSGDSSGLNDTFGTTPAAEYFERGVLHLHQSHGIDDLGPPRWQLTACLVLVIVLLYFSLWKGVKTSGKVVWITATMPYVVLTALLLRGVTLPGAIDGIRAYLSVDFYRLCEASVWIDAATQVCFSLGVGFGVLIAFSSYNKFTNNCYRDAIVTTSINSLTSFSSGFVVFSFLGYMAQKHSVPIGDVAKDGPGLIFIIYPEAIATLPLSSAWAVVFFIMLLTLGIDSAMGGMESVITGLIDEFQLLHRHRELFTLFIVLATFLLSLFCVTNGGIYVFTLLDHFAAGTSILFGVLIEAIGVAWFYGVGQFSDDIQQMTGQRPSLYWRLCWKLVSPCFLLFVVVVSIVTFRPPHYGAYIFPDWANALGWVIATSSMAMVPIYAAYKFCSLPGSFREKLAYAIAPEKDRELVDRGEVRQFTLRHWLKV
Method: (§3) To prepare membranes, HEK293 cells expressing monoamine transporters were harvested from 80–90% confluent dishes. In short, cells were washed with ice-cold phosphate buffered saline (PBS) twice. An extra 5 mL of PBS was added, and cells were mechanically detached using a plastic scraper and subsequently pelleted by centrifugation (400× g for 10 min at 4 °C). The resulting pellet was resuspended in hypotonic HME buffer (20 mM HEPES NaOH, 1 mM EDTA, 2 mM MgCl2; pH 7.4) and then subjected to two freeze-thaw cycles in liquid nitrogen and homogenization through sonication at 4 °C. Membranes were collected by centrifugation (40,000× g for 30 min at 4 °C) and resuspended in an appropriate volume of HME buffer. Protein concentration was determined using the Bio-Rad Protein Reagent (Bio Rad Laboratories, Hercules, CA, USA). Membrane preparations were kept at −80 °C.
(hSERT assay, final concentration 3 nM)) diluted in the corresponding reaction buffer, 15 µg of membranes in 100 µL of reaction buffer, and 125 µL of the tested drug dilution. […] This non-specific binding also allows subtracting the binding to other components such as the microfiber filters or membrane lipids from the total binding values. Incubation was performed for 1 h at 22 °C. […] The filters were then placed into vials and scintillation cocktail was added. The trapped radioactivity was quantified by liquid scintillation counting. Specific binding of each drug to the transporter was defined as the difference between total binding (binding buffer in absence of drug) and non-specific binding.
Data were expressed as mean ± SEM.

hSERT [4] = target: T2, hSERT (Homo sapiens, UniProt P31645); test: Transporter binding assay, [3H]imipramine displacement in HEK293 membranes; design: expressed in transfected cells
T2 sequence (P31645 whole entry): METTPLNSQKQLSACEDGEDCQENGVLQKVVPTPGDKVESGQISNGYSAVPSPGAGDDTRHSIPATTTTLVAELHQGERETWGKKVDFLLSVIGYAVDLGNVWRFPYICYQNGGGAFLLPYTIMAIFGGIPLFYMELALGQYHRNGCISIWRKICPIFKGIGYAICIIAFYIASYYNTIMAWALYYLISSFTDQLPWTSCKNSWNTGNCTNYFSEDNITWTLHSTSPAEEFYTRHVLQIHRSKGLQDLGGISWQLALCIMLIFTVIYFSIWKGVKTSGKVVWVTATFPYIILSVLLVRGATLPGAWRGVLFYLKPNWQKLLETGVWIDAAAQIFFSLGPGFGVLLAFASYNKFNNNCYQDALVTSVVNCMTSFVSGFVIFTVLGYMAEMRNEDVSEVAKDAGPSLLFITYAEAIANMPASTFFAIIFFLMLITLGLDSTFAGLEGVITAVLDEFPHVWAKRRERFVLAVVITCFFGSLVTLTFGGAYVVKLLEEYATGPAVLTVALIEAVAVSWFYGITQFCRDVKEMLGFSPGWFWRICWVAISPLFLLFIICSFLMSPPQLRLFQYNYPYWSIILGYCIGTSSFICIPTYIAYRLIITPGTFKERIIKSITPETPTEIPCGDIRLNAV
Method: as §3
This non-specific binding also allows subtracting the binding to other components such as the microfiber filters or membrane lipids from the total binding values. Incubation was performed for 1 h at 22 °C. […] The filters were then placed into vials and scintillation cocktail was added. The trapped radioactivity was quantified by liquid scintillation counting. Specific binding of each drug to the transporter was defined as the difference between total binding (binding buffer in absence of drug) and non-specific binding.
as §2

hDAT [5] = target: T1, hDAT; test: Uptake inhibition assay, [3H]MPP+ uptake in transfected HEK293 cells; conditions: for potency at inhibiting DAT relative to cocaine: [3H]MPP+ uptake at hDAT, vs cocaine
hSERT [6] = target: T2, hSERT; test: Uptake inhibition assay, [3H]5-HT uptake in transfected HEK293 cells
Swiss CD-1 mice [7] = test: Horizontal locomotor activity (HLA); type: in vivo; conditions: for HLA vs saline group: 2.5 mg kg−1 i.p., distance travelled in 60 min; for duration of the increase in locomotor activity: medium dose 10 mg kg−1 i.p., time course
Method: as §1
A habituation phase was performed to reduce the novelty and stress associated with handling and injection. In this habituation phase, all mice received, for two consecutive days, an intraperitoneal (i.p.) saline injection and were then placed into a black Plexiglass open field arena (25 × 25 × 40 cm) under low-light conditions and white noise for 30 min. On the test day, the horizontal locomotor activity (HLA) produced by the tested cathinones was measured as described by, with minor modifications. Briefly, the animals received the corresponding i.p. injection (saline 5 mL kg^−1, 3-F-α-PVP, 4-F-α-PVP, 3-Cl-α-PVP, 4-Cl-α-PVP, 3,4-Cl2-α-PVP, 3-Br-α-PVP or 4-Br-α-PVP 2.5, 10 or 25 mg kg^−1 and were immediately placed in the open field arena with the same conditions of light and noise. HLA was video-monitored for 1 h, and their total travelled distance (in cm) was measured using a specific tracking software (Smart 3.0 Panlab, Barcelona, Spain).
as §2

SMILES	acute anxiogenic effect (time in center of open field) (Swiss CD-1 mice [1])	CPP rewarding effects vs saline (Swiss CD-1 mice [2])	Ki (hDAT [3]) [nM]	hDAT/hSERT Affinity Ratio (hDAT [3])	Ki (hSERT [4]) [nM]	IC50 (hDAT [5]) [nM]	hDAT/hSERT Inhibition Ratio (hDAT [5])	IC50 (hSERT [6]) [nM]	CPP rewarding properties vs saline (Swiss CD-1 mice [2]; lowest dose 2.5 mg kg−1 i.p.)	potency at inhibiting DAT relative to cocaine (hDAT [5]) [fold]	HLA vs saline group (Swiss CD-1 mice [7])	HLA dose-response at the highest dose (Swiss CD-1 mice [7]; 25 mg kg−1 i.p.)	time in center of open field at the lowest dose (Swiss CD-1 mice [1]; 2.5 mg kg−1 i.p.)	duration of the increase in locomotor activity (Swiss CD-1 mice [7]) [min]	time in center of open field at the highest dose (Swiss CD-1 mice [1]; 25 mg kg−1 i.p., effect only at this dose)
CCCC(C(=O)c1ccc(Cl)c(Cl)c1)N1CCCC1 (stereo not drawn) [3,4-Cl-α-PVP, 3,4-Dichloro-α-Pyrrolidinopentiophenone]	anxiogenic effect	significant increase of the rewarding effects	11	462	4990	266	47	12700	–	–	–	–	–	–	–
CCCC(C(=O)c1cccc(Br)c1)N1CCCC1 (stereo not drawn) [3-Br-α-PVP, 3-Bromo-α-Pyrrolidinopentiophenone]	anxiogenic effect	significant increase of the rewarding effects	12	470	5600	117	341	40000	did not show rewarding properties	2	–	–	–	–	–
CCCC(C(=O)c1cccc(Cl)c1)N1CCCC1 (stereo not drawn) [3-Cl-α-PVP, 3-Chloro-α-Pyrrolidinopentiophenone]	anxiogenic effect	did not induce significant rewarding effects	13	1234	16400	349	95	33300	–	–	significant effect	ceiling effect	anxiogenic effects	–	–
CCCC(C(=O)c1cccc(F)c1)N1CCCC1 (stereo not drawn) [3-F-α-PVP, 3-Fluoro-α-Pyrrolidinopentiophenone]	anxiogenic effect	–	14	4540	63500	132	1819	> 100000	–	2	significant effect	–	–	–	–
CCCC(C(=O)c1ccc(Br)cc1)N1CCCC1 (stereo not drawn) [4-Br-α-PVP, 4-Bromo-α-Pyrrolidinopentiophenone]	did not cause acute anxiogenic effects	significant increase of the rewarding effects	24	52	1250	156	148	23100	–	2	–	–	–	< 60	–
CCCC(C(=O)c1ccc(Cl)cc1)N1CCCC1 (stereo not drawn) [4-Cl-α-PVP, 4-Chloro-α-Pyrrolidinopentiophenone]	anxiogenic effect	did not induce significant rewarding effects	16	478	7900	391	38	15200	–	–	–	–	–	< 60	–
CCCC(C(=O)c1ccc(F)cc1)N1CCCC1 (stereo not drawn) [4-F-α-PVP, 4-Fluoro-α-Pyrrolidinopentiophenone]	anxiogenic effect	significant increase of the rewarding effects	49	1173	57900	154	1366	> 100000	–	2	–	–	–	–	decrease in the time spent in the center
CCCC(C(=O)c1ccccc1)N1CCCC1 (stereo not drawn) [α-PVP, α-Pyrrolidinopentiophenone]	–	–	17	8514	> 100000	129	3418	> 100000	–	–	–	–	–	–	–
